Measured values: ChEMBL document CHEMBL1201862, “PubChem BioAssay data set” (2004)
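Method: 48-hour compound exposure of cells in 96-well plates, five concentrations, linear interpolation of endpoints. Here, GI50 denotes the concentration required for 50% inhibition of growth.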 Activity calls are given as the source filed them. Cut-off read from the data, not from the text of the source: active = GI50 up to about 1.1 µM and inactive = higher.

How the values were obtained:
Assay in all cases: growth of human tumour cells (NCI), 48 h
CAKI-1 = test system: CAKI-1
OVCAR-4 = test system: OVCAR-4
OVCAR-3 = test system: OVCAR-3
M14 = test system: M14
SW-620 = test system: SW-620
MOLT-4 = test system: MOLT-4
SNB-75 = test system: SNB-75
SF-295 = test system: SF-295
UO-31 = test system: UO-31
MDA-MB-435 = test system: MDA-MB-435
UACC-62 = test system: UACC-62
RPMI-8226 = test system: RPMI-8226
MDA-MB-231 = test system: MDA-MB-231
BT-549 = test system: BT-549
SK-MEL-5 = test system: SK-MEL-5
SNB-19 = test system: SNB-19
U-251 = test system: U-251
A549 = test system: A549
LOX IMVI = test system: LOX IMVI
SK-MEL-28 = test system: SK-MEL-28
RXF 393 = test system: RXF 393
K562 = test system: K562
TK-10 = test system: TK-10
IGROV-1 = test system: IGROV-1
SF-539 = test system: SF-539
HOP-62 = test system: HOP-62
CCRF-CEM = test system: CCRF-CEM
HCT-15 = test system: HCT-15
NCI-H23 = test system: NCI-H23
SF-268 = test system: SF-268
MCF7 = test system: MCF7
786-0 = test system: 786-0
SK-MEL-2 = test system: SK-MEL-2
MDA-N = test system: MDA-N
HOP-92 = test system: HOP-92
NCI/ADR-RES = test system: NCI/ADR-RES
T47D = test system: T47D
Hs-578T = test system: Hs-578T
COLO 205 = test system: COLO 205
OVCAR-5 = test system: OVCAR-5
DU-145 = test system: DU-145
Malme-3M = test system: Malme-3M
ACHN = test system: ACHN
SR = test system: SR
PC-3 = test system: PC-3
SN12C = test system: SN12C
A498 = test system: A498
NCI-H522 = test system: NCI-H522
OVCAR-8 = test system: OVCAR-8
KM12 = test system: KM12
UACC-257 = test system: UACC-257
EKVX = test system: EKVX
HT-29 = test system: HT-29
HL-60 = test system: HL-60
SK-OV-3 = test system: SK-OV-3
HCT-116 = test system: HCT-116
NCI-H460 = test system: NCI-H460
NCI-H226 = test system: NCI-H226

`Nc1nc(N)nc(CCCc2nc(N)nc(N)n2)n1` was tested, and the GI50 (CAKI-1) was > 100 µM (inactive), the GI50 (OVCAR-4) was > 100 µM (inactive) and the GI50 (OVCAR-3) was > 100 µM (inactive). The GI50 (M14) was > 100 µM (inactive), the GI50 (SW-620) was > 100 µM (inactive) and the GI50 (MOLT-4) was > 100 µM (inactive). The GI50 (SNB-75) was > 100 µM (inactive), the GI50 (SF-295) was > 100 µM (inactive) and the GI50 (UO-31) was > 100 µM (inactive). The GI50 (MDA-MB-435) was > 100 µM (inactive), the GI50 (UACC-62) was > 100 µM (inactive) and the GI50 (RPMI-8226) was > 100 µM (inactive). The GI50 (MDA-MB-231) was > 100 µM (inactive), the GI50 (BT-549) was > 100 µM (inactive) and the GI50 (SK-MEL-5) was > 100 µM (inactive). For the same molecule, the GI50 (SNB-19) was > 100 µM (inactive), the GI50 (U-251) was > 100 µM (inactive) and the GI50 (A549) was > 100 µM (inactive). The GI50 (LOX IMVI) was > 100 µM (inactive), the GI50 (SK-MEL-28) was > 100 µM (inactive) and the GI50 (RXF 393) was > 100 µM (inactive). For the same molecule, the GI50 (K562) was > 100 µM (inactive), the GI50 (TK-10) was > 100 µM (inactive) and the GI50 (IGROV-1) was > 100 µM (inactive). For the same molecule, the GI50 (SF-539) was > 100 µM (inactive), the GI50 (HOP-62) was > 100 µM (inactive) and the GI50 (CCRF-CEM) was > 100 µM (inactive). The GI50 (HCT-15) was greater than 100 µM, the GI50 (NCI-H23) was > 100 µM (inactive) and the GI50 (SF-268) was > 100 µM (inactive). The GI50 (MCF7) was > 100 µM (inactive), the GI50 (786-0) was > 100 µM (inactive) and the GI50 (SK-MEL-2) was > 100 µM (inactive). For the same molecule, the GI50 (MDA-N) was > 100 µM (inactive), the GI50 (HOP-92) was > 100 µM (inactive) and the GI50 (NCI/ADR-RES) was > 100 µM (inactive). The GI50 (T47D) was > 100 µM (inactive), the GI50 (Hs-578T) was > 100 µM (inactive) and the GI50 (COLO 205) was > 100 µM (inactive). For the same molecule, the GI50 (OVCAR-5) was > 100 µM (inactive), the GI50 (DU-145) was > 100 µM (inactive) and the GI50 (Malme-3M) was > 100 µM (inactive). The GI50 (ACHN) was > 100 µM (inactive), the GI50 (SR) was > 100 µM (inactive) and the GI50 (PC-3) was > 100 µM (inactive). For the same molecule, the GI50 (SN12C) was > 100 µM (inactive), the GI50 (A498) was > 100 µM (inactive) and the GI50 (NCI-H522) was > 100 µM (inactive). The GI50 (OVCAR-8) was > 100 µM (inactive), the GI50 (KM12) was > 100 µM (inactive) and the GI50 (UACC-257) was > 100 µM (inactive). The GI50 (EKVX) was > 100 µM (inactive), the GI50 (HT-29) was > 100 µM (inactive) and the GI50 (HL-60) was > 100 µM (inactive). For the same molecule, the GI50 (SK-OV-3) was > 100 µM (inactive), the GI50 (HCT-116) was > 100 µM (inactive) and the GI50 (NCI-H460) was > 100 µM (inactive). For the same molecule, the GI50 (NCI-H226) was > 100 µM (inactive).
In the case of `CC(=O)c1nccc2c1c(C)nc1ccccc12`, the GI50 (CAKI-1) is reported as 30.3 µM (inactive), the GI50 (OVCAR-4) is reported as > 100 µM (inactive) and the GI50 (OVCAR-3) is reported as > 100 µM (inactive). For the same molecule, the GI50 (M14) was > 100 µM (inactive), the GI50 (SW-620) was > 100 µM (inactive) and the GI50 (MOLT-4) was 44.6 µM (inactive). For the same molecule, the GI50 (SNB-75) was > 100 µM (inactive), the GI50 (SF-295) was 53.7 µM (inactive) and the GI50 (UO-31) was 55.7 µM (inactive). For the same molecule, the GI50 (MDA-MB-435) was > 100 µM (inactive), the GI50 (UACC-62) was 53.7 µM (inactive) and the GI50 (RPMI-8226) was 16.4 µM (inactive). The GI50 (MDA-MB-231) was 38.3 µM (inactive), the GI50 (BT-549) was 97.3 µM (inactive) and the GI50 (SK-MEL-5) was 60.8 µM (inactive). For the same molecule, the GI50 (SNB-19) was > 100 µM (inactive), the GI50 (U-251) was > 100 µM (inactive) and the GI50 (A549) was 65 µM (inactive). For the same molecule, the GI50 (LOX IMVI) was 57 µM (inactive), the GI50 (SK-MEL-28) was > 100 µM (inactive) and the GI50 (RXF 393) was 38.5 µM (inactive). For the same molecule, the GI50 (K562) was 71.3 µM (inactive), the GI50 (TK-10) was > 100 µM (inactive) and the GI50 (IGROV-1) was 70 µM (inactive). For the same molecule, the GI50 (SF-539) was > 100 µM (inactive), the GI50 (HOP-62) was 69.8 µM (inactive) and the GI50 (CCRF-CEM) was 16.4 µM (inactive). The GI50 (HCT-15) was 58.9 µM, the GI50 (NCI-H23) was 79.8 µM (inactive) and the GI50 (SF-268) was 64.3 µM (inactive). For the same molecule, the GI50 (MCF7) was 39.7 µM (inactive), the GI50 (SK-MEL-2) was > 100 µM (inactive) and the GI50 (MDA-N) was 53.6 µM (inactive). For the same molecule, the GI50 (HOP-92) was 25.8 µM (inactive), the GI50 (NCI/ADR-RES) was > 100 µM (inactive) and the GI50 (T47D) was 43.4 µM (inactive). For the same molecule, the GI50 (Hs-578T) was 30.3 µM (inactive), the GI50 (COLO 205) was > 100 µM (inactive) and the GI50 (OVCAR-5) was > 100 µM (inactive). The GI50 (DU-145) was > 100 µM (inactive), the GI50 (Malme-3M) was > 100 µM (inactive) and the GI50 (ACHN) was > 100 µM (inactive). The GI50 (SR) was 26.4 µM (inactive), the GI50 (PC-3) was 85.1 µM (inactive) and the GI50 (SN12C) was 32.7 µM (inactive). The GI50 (A498) was 48 µM (inactive), the GI50 (NCI-H522) was 47.5 µM (inactive) and the GI50 (OVCAR-8) was 72.6 µM (inactive). For the same molecule, the GI50 (KM12) was 38.7 µM (inactive), the GI50 (UACC-257) was > 100 µM (inactive) and the GI50 (EKVX) was 52.2 µM (inactive). The GI50 (HT-29) was 74.5 µM (inactive), the GI50 (HL-60) was 67.8 µM (inactive) and the GI50 (SK-OV-3) was > 100 µM (inactive). For the same molecule, the GI50 (HCT-116) was 64.3 µM (inactive), the GI50 (NCI-H460) was 32.8 µM (inactive) and the GI50 (NCI-H226) was 10.4 µM (inactive).
